Reference: patent US20220298213A1, “IN VIVO ENGINEERED CEREBLON PROTEIN” (Vividion Therapeutics, Inc., priority 2018, published 2022)
Read-outs that look alike come from different tables or passages of the source.

Columns and labels:
Format in all cases: binding
PRTN_J = assay: Inhibition of probe labeling at screening concentration (Table 1); details: 500 μM
Procedure: (§1) Cells were resuspended in cold PBS on ice and sonicated with a probe sonicator to achieve lysis. 200 μL of lysate containing 5 mg/ml proteome was treated with 2 μL of 100× compound stock in a 2-mL deep-well plate. The treated lysate was subsequently incubate at 25° C. for 1 hr with shaking at 600 rpm. The treated lysate was further incubated with 2 μL of 10 mM desthiobiotin iodoacetamide probe at 25° C. for 1 hr with shaking at 600 rpm. Next, the lysate was further treat with 20 μL of solution of PBS containing 11 mM MgSO4 and 2.5% Turbonuclease stock and incubated at 25° C. for 20 minutes with shaking at 600 rpm. 1.7 mL ice-cold acetone was added to each well and incubated at −20° C. for 2 hr, followed by max speed (4200 rpm) spin for 45 min. Acetone was then decanted and the plates were blotted to remove acetone. The plates were then dried in open air for 20 minutes. After drying, the plates were then covered with foil seal and stored at −80° C. overnight.

PRTN_C = assay: as above; details: 500 μM
Procedure: as §1

PRTN_I = assay: as above; details: 500 μM
Procedure: as §1

PRTN_F = assay: as above; details: 500 μM
Procedure: as §1

PRTN_D = assay: as above; details: 500 μM
Procedure: as §1

PRTN_K = assay: as above; details: 500 μM
Procedure: as §1

PRTN_H = assay: as above; details: 500 μM
Procedure: as §1

PRTN_E = assay: as above; details: 500 μM
Procedure: as §1

PRTN_A = assay: as above; details: 500 μM
Procedure: as §1

PRTN_G = assay: as above; details: 500 μM
Procedure: as §1

PRTN_B = assay: as above; details: 500 μM
Procedure: as §1

CRBN-287 = CRBN-287 (Homo sapiens, UniProt Q96SW2); assay: as above; design: endogenous in cells; host or cells: cell lysate; details: native folded protein, read-out: Percentage inhibition of probe labeling, CRBN_287
CRBN-287, sequence (Q96SW2 whole entry): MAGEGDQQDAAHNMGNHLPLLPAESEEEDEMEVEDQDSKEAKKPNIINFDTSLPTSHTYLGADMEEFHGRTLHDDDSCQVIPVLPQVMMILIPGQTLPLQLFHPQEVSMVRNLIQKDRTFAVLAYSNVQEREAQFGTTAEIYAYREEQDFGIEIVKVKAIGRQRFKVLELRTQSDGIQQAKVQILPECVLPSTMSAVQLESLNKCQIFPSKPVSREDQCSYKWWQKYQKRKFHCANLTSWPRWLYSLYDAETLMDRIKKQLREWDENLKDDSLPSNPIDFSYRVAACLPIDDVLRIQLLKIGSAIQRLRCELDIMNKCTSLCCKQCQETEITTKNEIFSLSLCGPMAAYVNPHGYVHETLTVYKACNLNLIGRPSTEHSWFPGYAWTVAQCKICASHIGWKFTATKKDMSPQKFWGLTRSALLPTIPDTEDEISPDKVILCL
Procedure: as §1

CRBN-318 = CRBN-318 (Homo sapiens, UniProt Q96SW2); assay: as above; design: endogenous in cells; host or cells: cell lysate; details: native folded protein, read-out: Percentage inhibition of probe labeling, CRBN_318
CRBN-318, sequence (Q96SW2 whole entry): as above
Procedure: as §1

CRBN Cys318 = biological target: T1, CRBN Cys318 (Homo sapiens, UniProt Q96SW2); assay: Inhibition of iodoacetamide probe labeling of CRBN cysteines, cell lysate (Table 3A); details: for inhibition at 7.8 µM: 7.8 micromolar
T1 construct: endogenous in cells
T1 sequence (Q96SW2 whole entry): as above
Procedure: (§2) “X@Y” means that x % inhibition of iodoacetamide probe labeling was observed by treatment of cell lysate with the give compound in each row of the table for 1 h at a concentration of y micromolar. There was consistently high inhibition at C318 in addition to C287, which can be attributed to an allosteric inhibition.

CRBN Cys287 = biological target: T2, CRBN Cys287 (Homo sapiens, UniProt Q96SW2); assay: as above; details: for inhibition at 7.8 µM: 7.8 micromolar
T2 construct: endogenous in cells
T2 sequence (Q96SW2 whole entry): as above
Procedure: as §2

CRBN Cys188 = biological target: T3, CRBN Cys188 (Homo sapiens, UniProt Q96SW2); assay: as above; details: for inhibition at 125 µM: 125 micromolar
T3 construct: endogenous in cells
T3 sequence (Q96SW2 whole entry): as above
Procedure: as §2

CRBN Cys366 = biological target: T4, CRBN Cys366 (Homo sapiens, UniProt Q96SW2); assay: as above
T4 construct: endogenous in cells
T4 sequence (Q96SW2 whole entry): as above
Procedure: as §2

CRBN Cys234 = biological target: T5, CRBN Cys234 (Homo sapiens, UniProt Q96SW2); assay: as above; details: for inhibition at 500 µM: 500 micromolar; for inhibition at 500 µM / inhibition at 31.2 µM / inhibition at 125 µM: read-out: % inhibition of iodoacetamide probe labeling, Cys234
T5 construct: endogenous in cells
T5 sequence (Q96SW2 whole entry): as above
Procedure: as §2

CRBN Cys205 = biological target: T6, CRBN Cys205 (Homo sapiens, UniProt Q96SW2); assay: as above; details: for inhibition at 500 µM: 500 micromolar; for inhibition at 500 µM / inhibition at 31.2 µM / inhibition at 125 µM: read-out: % inhibition of iodoacetamide probe labeling, Cys205
T6 construct: endogenous in cells
T6 sequence (Q96SW2 whole entry): as above
Procedure: as §2

CRBN Cys219 = biological target: T7, CRBN Cys219 (Homo sapiens, UniProt Q96SW2); assay: as above; details: for inhibition at 500 µM: 500 micromolar
T7 construct: endogenous in cells
T7 sequence (Q96SW2 whole entry): as above
Procedure: as §2

[1] = 50 micromolar, cell lysate, 1 h
[2] = read-out: % inhibition of iodoacetamide probe labeling, Cys287
[3] = 500 micromolar, cell lysate, 1 h, read-out: % inhibition of iodoacetamide probe labeling, Cys318
[4] = cell lysate, 1 h, read-out: % inhibition of iodoacetamide probe labeling, Cys219
[5] = read-out: % inhibition of iodoacetamide probe labeling, Cys219
[6] = 500 micromolar, cell lysate, 1 h, read-out: % inhibition of iodoacetamide probe labeling, Cys287
[7] = 2.0 micromolar, cell lysate, 1 h
[8] = 7.8 micromolar, cell lysate, 1 h
[9] = 31.2 micromolar, cell lysate, 1 h
[10] = 125 micromolar, cell lysate, 1 h
[11] = 0.12 micromolar, cell lysate, 1 h

C=CC(=O)N1CCC(Oc2cc(C)cc(-c3ccccc3)c2)CC1
Percentage inhibition of probe labeling, PRTN_J (PRTN_J): −2%
Percentage inhibition of probe labeling, PRTN_C (PRTN_C): 15%
Percentage inhibition of probe labeling, PRTN_I (PRTN_I): 0%
Percentage inhibition of probe labeling, PRTN_F (PRTN_F): −12%
Percentage inhibition of probe labeling, PRTN_D (PRTN_D): 2%
Percentage inhibition of probe labeling, PRTN_K (PRTN_K): 17%
Percentage inhibition of probe labeling, PRTN_H (PRTN_H): −5%
Percentage inhibition of probe labeling, PRTN_E (PRTN_E): 2%
Percentage inhibition of probe labeling, PRTN_A (PRTN_A): 5%
Percentage inhibition of probe labeling, PRTN_G (PRTN_G): −8%
Percentage inhibition of probe labeling, PRTN_B (PRTN_B): −1%
inhibition at 500 µM (CRBN-287): 72%
inhibition at 500 µM (CRBN-318): 76%

COc1ccccc1-c1cc(C#N)cc(OC2CCN(C(=O)/C=C/CN(C)C)CC2)c1 [Al]
inhibition at 5 µM (CRBN Cys318; 5 micromolar, cell lysate, 1 h): 43%
inhibition at 50 µM (CRBN Cys318; [1]): 86%
inhibition at 500 µM (CRBN Cys318; read-out: % inhibition of iodoacetamide probe labeling, Cys318, 500 micromolar, cell lysate, 1 h): 95%
inhibition at 5 µM (CRBN Cys287; 5 micromolar, cell lysate, 1 h): 40%
inhibition at 50 µM (CRBN Cys287; [1]): 90%
inhibition at 500 µM (CRBN Cys287; [2]): 97%

C=CC(=O)N1CC(Oc2ccc(Cl)cc2)C1 [Example A3]
inhibition at 125 µM (CRBN Cys188; cell lysate, 1 h): 5%
inhibition at 500 µM (CRBN Cys188; 500 micromolar, cell lysate, 1 h): 3%
inhibition at 125 µM (CRBN Cys366; read-out: % inhibition of iodoacetamide probe labeling, Cys366): -6%
inhibition at 500 µM (CRBN Cys234; cell lysate, 1 h): 31%
inhibition at 31.2 µM (CRBN Cys234): 6%
inhibition at 125 µM (CRBN Cys234): 19%
inhibition at 7.8 µM (CRBN Cys318; cell lysate, 1 h): 21%
inhibition at 500 µM (CRBN Cys318; [3]): 85%
inhibition at 31.2 µM (CRBN Cys318; read-out: % inhibition of iodoacetamide probe labeling, Cys318, 31.2 micromolar, cell lysate, 1 h): 35%
inhibition at 125 µM (CRBN Cys318; read-out: % inhibition of iodoacetamide probe labeling, Cys318, 125 micromolar, cell lysate, 1 h): 64%
inhibition at 500 µM (CRBN Cys205; cell lysate, 1 h): 15%
inhibition at 31.2 µM (CRBN Cys205): 7%
inhibition at 125 µM (CRBN Cys205): 21%
inhibition at 500 µM (CRBN Cys219; [4]): 40%
inhibition at 31.2 µM (CRBN Cys219; [5]): 19%
inhibition at 125 µM (CRBN Cys219; [5]): 8%
inhibition at 7.8 µM (CRBN Cys287; cell lysate, 1 h): 12%
inhibition at 500 µM (CRBN Cys287; [6]): 96%
inhibition at 31.2 µM (CRBN Cys287; [2]): 51%
inhibition at 125 µM (CRBN Cys287; [2]): 80%

COc1ccccc1-c1cc(OC2CCN(C(=O)/C(C#N)=C/C(C)C)CC2)cc(C(N)=O)c1 [Example A5]
inhibition at 2 µM (CRBN Cys188; [7]): 22%
inhibition at 7.8 µM (CRBN Cys188; [8]): 13%
inhibition at 31.2 µM (CRBN Cys188; [9]): 13%
inhibition at 125 µM (CRBN Cys188; cell lysate, 1 h): 7%
inhibition at 0.49 µM (CRBN Cys188; read-out: % inhibition of iodoacetamide probe labeling, Cys188): 17%
inhibition at 7.8 µM (CRBN Cys366; [8]): -22%
inhibition at 2 µM (CRBN Cys234; [7]): 19%
inhibition at 7.8 µM (CRBN Cys234; [8]): 35%
inhibition at 31.2 µM (CRBN Cys234; [9]): 37%
inhibition at 125 µM (CRBN Cys234; [10]): 60%
inhibition at 500 µM (CRBN Cys234; cell lysate, 1 h): 25%
inhibition at 0.12 µM (CRBN Cys318; [11]): 77%
inhibition at 2 µM (CRBN Cys318; [7]): 85%
inhibition at 7.8 µM (CRBN Cys318; cell lysate, 1 h): 93%
inhibition at 31.2 µM (CRBN Cys318; 31.2 micromolar, cell lysate, 1 h, read-out: % inhibition of iodoacetamide probe labeling, Cys318): 94%
inhibition at 125 µM (CRBN Cys318; 125 micromolar, cell lysate, 1 h, read-out: % inhibition of iodoacetamide probe labeling, Cys318): 95%
inhibition at 500 µM (CRBN Cys318; [3]): 96%
inhibition at 0.49 µM (CRBN Cys318; read-out: % inhibition of iodoacetamide probe labeling, Cys318, 0.49 micromolar, cell lysate, 1 h): 76%
inhibition at 2 µM (CRBN Cys205; [7]): 19%
inhibition at 7.8 µM (CRBN Cys205; [8]): 36%
inhibition at 31.2 µM (CRBN Cys205; [9]): 29%
inhibition at 125 µM (CRBN Cys205; [10]): 37%
inhibition at 500 µM (CRBN Cys205; cell lysate, 1 h): 31%
inhibition at 0.49 µM (CRBN Cys219; 0.49 micromolar, cell lysate, 1 h): 17%
inhibition at 7.8 µM (CRBN Cys219; [8]): 13%
inhibition at 125 µM (CRBN Cys219; 125 micromolar, cell lysate, 1 h, read-out: % inhibition of iodoacetamide probe labeling, Cys219): 25%
inhibition at 500 µM (CRBN Cys219; [4]): 13%
inhibition at 2 µM (CRBN Cys219; [5]): 22%
inhibition at 0.12 µM (CRBN Cys287; [11]): 70%
inhibition at 2 µM (CRBN Cys287; 2.0 micromolar, cell lysate, 1 h, read-out: % inhibition of iodoacetamide probe labeling, Cys287): 93%
inhibition at 7.8 µM (CRBN Cys287; cell lysate, 1 h): 96%
inhibition at 31.2 µM (CRBN Cys287; 31.2 micromolar, cell lysate, 1 h, read-out: % inhibition of iodoacetamide probe labeling, Cys287): 98%
inhibition at 125 µM (CRBN Cys287; 125 micromolar, cell lysate, 1 h, read-out: % inhibition of iodoacetamide probe labeling, Cys287): 99%
inhibition at 500 µM (CRBN Cys287; [6]): 99%
inhibition at 0.49 µM (CRBN Cys287; [2]): 83%
